Experimental data from patent US11053241B2, “TYK2 inhibitors and uses thereof” (Nimbus Lakshmi, Inc., priority 2018, dated 2021).

Assays:
TYK2 kinase domain (JH1) = TYK2 kinase domain (JH1) (Homo sapiens (Human), UniProt P29597); test: TYK2 Radioactive Kinase Assay; assay type: biochemical; conditions: compound at 10 μM; ATP at 10 μM; 120 min at room temp
Method: (§1) Peptide substrate, [KKSRGDYMTMQIG], (20 μM) was prepared in reaction buffer (20 mM Hepes pH 7.5, 10 mM MgCl2, 1 mM EGTA, 0.02% Brij35, 0.02 mg/mL BSA, 0.1 mM […], 2 mM DTT, 1% DMSO). TYK2 (Invitrogen) kinase was added, followed by compounds in DMSO. ^33PATP was added to initiate the reaction in ATP at 10 μM. The kinase reaction was incubated for 120 min at room temp and reactions were spotted onto P81 ion exchange paper (Whatman #3698-915), and then washed extensively in 0.75% phosphoric acid, prior to reading the radioactivity counts. For JAK2 (Invitrogen) kinase assay the peptide substrate poly[Glu:Tyr](4:1), 0.2 mg/ml was used, in the reaction carried out the same as for TYK2.
(§2) The TYK2 and JAK2 radioactive kinase assay measures the percent inhibition at the TYK2 kinase domain (JH1) and the percent inhibition at the JAK2 kinase domain (JH1). Results of the assay are expressed as percent inhibition at 10 μM.

[1] = target: human TYK2 (JH2domain-pseudokinase) (Homo sapiens (Human), UniProt P29597); test: TYK2 JH2 Domain Binding Assay (KINOMEscan); conditions: 11-point 3-fold dilution, top concentration 30,000 nM, duplicate
Sequence of human TYK2 (JH2domain-pseudokinase) (P29597 556-888): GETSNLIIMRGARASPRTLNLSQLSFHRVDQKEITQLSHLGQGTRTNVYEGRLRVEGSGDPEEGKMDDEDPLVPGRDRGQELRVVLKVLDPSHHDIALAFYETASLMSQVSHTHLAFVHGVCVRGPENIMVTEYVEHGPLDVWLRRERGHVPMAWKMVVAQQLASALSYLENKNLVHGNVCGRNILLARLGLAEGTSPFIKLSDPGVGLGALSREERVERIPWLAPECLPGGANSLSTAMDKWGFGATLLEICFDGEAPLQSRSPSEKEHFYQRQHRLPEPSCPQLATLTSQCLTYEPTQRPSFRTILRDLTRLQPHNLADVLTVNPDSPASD
Procedure, shortened: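 Competition binding used an NFkB-DNA-tagged fusion of TYK2 JH2 (G556–D888) expressed in HEK293 extracts against an immobilised ligand, 1 h at room temperature. Bead-bound kinase was quantified by qPCR. Kd came from an 11-point 3-fold series with a 30,000 nM top concentration and 0.9% DMSO, Hill slope −1, run in duplicate.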

JAK2 kinase domain (JH1) = JAK2 kinase domain (JH1) (Homo sapiens (Human), UniProt O60674); test: JAK2 Radioactive Kinase Assay; assay type: biochemical; conditions: compound at 10 μM; ATP at 10 μM; substrate poly[Glu:Tyr](4:1)
Sequence of JAK2 kinase domain (JH1) (O60674 849-1124): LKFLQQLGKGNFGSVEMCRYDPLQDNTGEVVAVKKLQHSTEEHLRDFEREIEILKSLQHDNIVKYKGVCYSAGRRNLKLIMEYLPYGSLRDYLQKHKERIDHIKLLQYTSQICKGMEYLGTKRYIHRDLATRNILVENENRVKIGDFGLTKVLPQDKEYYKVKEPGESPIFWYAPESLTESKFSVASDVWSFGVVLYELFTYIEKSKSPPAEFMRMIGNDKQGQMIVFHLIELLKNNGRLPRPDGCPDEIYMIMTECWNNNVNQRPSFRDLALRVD
Method: as §1, §2

Sequence of TYK2 kinase domain (JH1) (P29597 897-1176): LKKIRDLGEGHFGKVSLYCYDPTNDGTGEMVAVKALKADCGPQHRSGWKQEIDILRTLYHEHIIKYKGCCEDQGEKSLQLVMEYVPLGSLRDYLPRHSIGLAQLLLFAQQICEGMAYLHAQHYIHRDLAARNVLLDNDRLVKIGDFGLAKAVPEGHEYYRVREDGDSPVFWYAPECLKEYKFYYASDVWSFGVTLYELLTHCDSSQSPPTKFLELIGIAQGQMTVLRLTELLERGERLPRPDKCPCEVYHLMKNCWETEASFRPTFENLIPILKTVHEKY

Compound | inhibition at 10 µM (TYK2 kinase domain (JH1)) | Kd [1] | inhibition at 10 µM (JAK2 kinase domain (JH1))
CNC(=O)c1cnc(NC(=O)C2CC2)c2[nH]c(-c3cc(-c4nccs4)ccn3)cc12 [Compound I-14, 7-(cyclopropanecarboxamido)-N-methyl-2-(4-(thiazol-2-yl)pyridin-2-yl)-1H-pyrrolo[2,3-c]pyridine-4-carboxamide] | < 50% | 0.2 to 1 nM | < 50%
CNC(=O)c1cnc(NC(=O)C2CC2)c2[nH]c(-c3cc(-c4ncco4)ccn3)cc12 [Compound I-15, 7-(cyclopropanecarboxamido)-N-methyl-2-(4-(oxazol-2-yl)pyridin-2-yl)-1H-pyrrolo[2,3-c]pyridine-4-carboxamide] | < 50% | 0.2 to 1 nM | < 50%
CNC(=O)c1cnc(NC(=O)C2CC2)c2[nH]c(-c3cc(-n4ccc(C)n4)ccn3)cc12 [Compound I-17, 7-(cyclopropanecarboxamido)-N-methyl-2-(4-(3-methyl-1H-pyrazol-1-yl)pyridin-2-yl)-1H-pyrrolo[2,3-c]pyridine-4-carboxamide] | < 50% | 0.2 to 1 nM | < 50%
CNC(=O)c1cnc(NC(=O)C2CC2)c2[nH]c(-c3cccc(-n4cnnc4)c3)cc12 [Compound I-18, 2-(3-(4H-1,2,4-triazol-4-yl)phenyl)-7-(cyclopropanecarboxamido)-N-methyl-1H-pyrrolo[2,3-c]pyridine-4-carboxamide] | < 50% | 0.2 to 1 nM | < 50%
CNC(=O)c1cnc(NC(=O)C2CC2)c2[nH]c(-c3ccc4cn(C5CC5)nc4c3)cc12 [Compound I-20, 7-(cyclopropanecarboxamido)-2-(2-cyclopropyl-2H-indazol-6-yl)-N-methyl-1H-pyrrolo[2,3-c]pyridine-4-carboxamide] | < 50% | 0.2 to 1 nM | < 50%
CNC(=O)c1cnc(NC(=O)C2CC2)c2[nH]c(-c3cccc(N4CCOCC4)c3F)cc12 [Compound I-22, 7-(cyclopropanecarboxamido)-2-(2-fluoro-3-morpholinophenyl)-N-methyl-1H-pyrrolo[2,3-c]pyridine-4-carboxamide] | < 50% | < 0.2 nM | < 50%
CNC(=O)c1cnc(NC(=O)C2CC2)c2[nH]c(-c3ccc(C(=O)N4CCCC4)cc3OC)cc12 [Compound I-25, 7-(cyclopropanecarboxamido)-2-(2-methoxy-4-(pyrrolidine-1-carbonyl)phenyl)-N-methyl-1H-pyrrolo[2,3-c]pyridine-4-carboxamide] | < 50% | < 0.2 nM | < 50%
CNC(=O)c1cnc(NC(=O)C2CC2)c2[nH]c(-c3ccc(N4CCCC4=O)cc3OC)cc12 [Compound I-26, 7-(cyclopropanecarboxamido)-2-(2-methoxy-4-(2-oxopyrrolidin-1-yl)phenyl)-N-methyl-1H-pyrrolo[2,3-c]pyridine-4-carboxamide] | < 50% | < 0.2 nM | < 50%
CNC(=O)c1cnc(NC(=O)C2CC2)c2[nH]c(-c3cccc(-c4cnc(C)cn4)c3)cc12 [Compound I-27, 7-(cyclopropanecarboxamido)-N-methyl-2-(3-(5-methylpyrazin-2-yl)phenyl)-1H-pyrrolo[2,3-c]pyridine-4-carboxamide] | < 50% | < 0.2 nM | < 50%
CNC(=O)c1ccc(-c2cc3c(C(=O)NC)cnc(NC(=O)C4CC4)c3[nH]2)c(OC)c1 [Compound I-29, 7-(cyclopropanecarboxamido)-2-(2-methoxy-4-(methylcarbamoyl)phenyl)-N-methyl-1H-pyrrolo[2,3-c]pyridine-4-carboxamide] | < 50% | 0.2 to 1 nM | < 50%
CNC(=O)CCCNc1ccc(-c2cc3c(C(=O)NC)cnc(NC(=O)C4CC4)c3[nH]2)c(OC)c1 [Compound I-30, 7-(cyclopropanecarboxamido)-2-(2-methoxy-4-((4-(methylamino)-4-oxobutyl)amino)phenyl)-N-methyl-1H-pyrrolo[2,3-c]pyridine-4-carboxamide] | < 50% | < 0.2 nM | < 50%
CCn1cc(-c2cc3c(C(=O)NC)cnc(NC(=O)C4CC4)c3[nH]2)ccc1=O [Compound I-31, 7-(cyclopropanecarboxamido)-2-(1-ethyl-6-oxo-1,6-dihydropyridin-3-yl)-N-methyl-1H-pyrrolo[2,3-c]pyridine-4-carboxamide] | < 50% | 1 to 10 nM | < 50%
CNC(=O)c1cnc(NC(=O)C2CC2)c2[nH]c(-c3cccnc3OC3CC3)cc12 [Compound I-34, 7-(cyclopropanecarboxamido)-2-(2-cyclopropoxypyridin-3-yl)-N-methyl-1H-pyrrolo[2,3-c]pyridine-4-carboxamide] | < 50% | < 0.2 nM | < 50%
CNC(=O)c1cnc(NC(=O)C2CC2)c2[nH]c(-c3cc(-c4ccn(C)n4)cnc3OC3CC3)cc12 [Compound I-38, 7-(cyclopropanecarboxamido)-2-(2-cyclopropoxy-5-(1-methyl-1H-pyrazol-3-yl)pyridin-3-yl)-N-methyl-1H-pyrrolo[2,3-c]pyridine-4-carboxamide] | < 50% | 1 to 10 nM | < 50%
CNC(=O)c1cnc(NC(=O)C2CC2)c2[nH]c(-c3cc(-c4nccs4)cnc3OC3CC3)cc12 [Compound I-39, 7-(cyclopropanecarboxamido)-2-(2-cyclopropoxy-5-(thiazol-2-yl)pyridin-3-yl)-N-methyl-1H-pyrrolo[2,3-c]pyridine-4-carboxamide] | < 50% | 1 to 10 nM | < 50%

Next, values leading:

inhibition at 10 µM (TYK2 kinase domain (JH1)) | Kd [1] | inhibition at 10 µM (JAK2 kinase domain (JH1)) | Compound
< 50% | < 0.2 nM | < 50% | [2H]C([2H])([2H])NC(=O)c1cnc(NC(=O)C2CC2)c2[nH]c(-c3cc(-c4ncn(C)n4)ccn3)cc12 [Compound I-16, 7-(cyclopropanecarboxamido)-N-(methyl-d3)-2-(4-(1-methyl-1H-1,2,4-triazol-3-yl)pyridin-2-yl)-1H-pyrrolo[2,3-c]pyridine-4-carboxamide]
< 50% | < 0.2 nM | < 50% | CNC(=O)c1cnc(NC(=O)C2CC2)c2[nH]c(-c3ccc4ccn(C)c4c3F)cc12 [Compound I-21, 7-(cyclopropanecarboxamido)-2-(7-fluoro-1-methyl-1H-indol-6-yl)-N-methyl-1H-pyrrolo[2,3-c]pyridine-4-carboxamide]
< 50% | 0.2 to 1 nM | < 50% | CNC(=O)c1cnc(NC(=O)C2CC2)c2[nH]c(-c3cccc(-c4nc(C)n(C)n4)c3)cc12 [Compound I-28, 7-(cyclopropanecarboxamido)-2-(3-(1,5-dimethyl-1H-1,2,4-triazol-3-yl)phenyl)-N-methyl-1H-pyrrolo[2,3-c]pyridine-4-carboxamide]
< 50% | 0.2 to 1 nM | < 50% | CNC(=O)c1cnc(NC(=O)C2CC2)c2[nH]c(-c3cccc(-c4ncn(C)n4)n3)cc12 [Compound I-32, 7-(cyclopropanecarboxamido)-N-methyl-2-(6-(1-methyl-1H-1,2,4-triazol-3-yl)pyridin-2-yl)-1H-pyrrolo[2,3-c]pyridine-4-carboxamide]
< 50% | 0.2 to 1 nM | < 50% | CCOc1ncccc1-c1cc2c(C(=O)NC)cnc(NC(=O)C3CC3)c2[nH]1 [Compound I-33, 7-(cyclopropanecarboxamido)-2-(2-ethoxypyridin-3-yl)-N-methyl-1H-pyrrolo[2,3-c]pyridine-4-carboxamide]
< 50% | 0.2 to 1 nM | < 50% | [2H]C([2H])([2H])NC(=O)c1cnc(NC(=O)C2CC2)c2[nH]c(-c3cccc(-c4ncn(C)n4)n3)cc12 [Compound I-35, 7-(cyclopropanecarboxamido)-N-(methyl-d3)-2-(6-(1-methyl-1H-1,2,4-triazol-3-yl)pyridin-2-yl)-1H-pyrrolo[2,3-c]pyridine-4-carboxamide]
< 50% | < 0.2 nM | < 50% | CNC(=O)c1cnc(NC(=O)C2CC2)c2[nH]c(-c3cccc(-c4ncn(C)n4)c3F)cc12 [Compound I-36, 7-(cyclopropanecarboxamido)-2-(2-fluoro-3-(1-methyl-1H-1,2,4-triazol-3-yl)phenyl)-N-methyl-1H-pyrrolo[2,3-c]pyridine-4-carboxamide]
< 50% | 1 to 10 nM | < 50% | CCOc1ncc(-c2ccn(C)n2)cc1-c1cc2c(C(=O)NC)cnc(NC(=O)C3CC3)c2[nH]1 [Compound I-37, 7-(cyclopropanecarboxamido)-2-(2-ethoxy-5-(1-methyl-1H-pyrazol-3-yl)pyridin-3-yl)-N-methyl-1H-pyrrolo[2,3-c]pyridine-4-carboxamide]
